Laboratory results taken from patent US6835382B2, “Ii peptide therapeutics to enhance antigen presentation” (University of Massachusetts, priority 1996, dated 2004).
Values belong to the substance of their own block, whether it stands above or below them. Non-standard residues stand in square brackets, D forms with d. Cit = NC(=O)NCCC[C@H](N)C(=O)O; Orn = NCCC[C@H](N)C(=O)O

Assays:
[1] = biological target: T1, murine E^d MHC class II allele (Mus musculus, UniProt P01904+P01915); assay: simultaneous assay, E^d allele (A20 APC, G28.C9 T hybridoma, HEL106-116; HT-2 [3H]TdR readout); format: cell-based; set-up: The A20 and CH27 B cell lymphoma lines express H-2^d and H-2^k alleles, respectively; endogenous in cells; host or cells: A20 B cell lymphoma (mitomycin C-treated or paraformaldehyde-fixed); conditions: for Times Baseline Response, Ed: Table 3, AE peptide 64 μM; for activity in simultaneous assay on E^d and E^k, in words: Tables 12 and 18
T1 sequence (P01904 26-255): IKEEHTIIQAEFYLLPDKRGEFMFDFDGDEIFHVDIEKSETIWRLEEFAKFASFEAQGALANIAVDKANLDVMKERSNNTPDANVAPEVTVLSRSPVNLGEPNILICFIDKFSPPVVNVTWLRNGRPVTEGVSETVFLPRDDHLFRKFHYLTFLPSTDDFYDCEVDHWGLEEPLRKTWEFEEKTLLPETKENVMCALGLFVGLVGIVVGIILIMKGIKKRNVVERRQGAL
T1 sequence (P01915 27-264 limits assumed): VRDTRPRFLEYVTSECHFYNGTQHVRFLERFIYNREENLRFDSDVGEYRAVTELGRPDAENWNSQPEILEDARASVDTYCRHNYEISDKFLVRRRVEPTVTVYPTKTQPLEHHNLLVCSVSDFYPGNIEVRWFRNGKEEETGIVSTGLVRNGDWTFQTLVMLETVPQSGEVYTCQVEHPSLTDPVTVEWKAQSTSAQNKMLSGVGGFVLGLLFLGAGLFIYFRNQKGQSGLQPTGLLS
Procedure: (§1) Examples 1-4 (Tables 1-18) will be briefly considered in order to establish the concept of tolerance discussed above. These examples describe experimental results observed in the so-called “simultaneous” assay. In the simultaneous assay four principle components are cultured together for a 24 hour period. The components of this culture, which are added simultaneously, are: (a) an antigenic peptide characterized by the ability to bind specifically into the antigenic peptide binding groove of an MHC class II molecule, (b) mitomycin C-treated, MHC class II-positive antigen presenting cells (APC) bearing the MHC class II allele required for binding of the specific antigenic peptide, and presentation of the specific antigenic peptide to the antigenic peptide-specific T cell hybridoma, (c) an effector compound of the present invention, and (d) an MHC class II allele-restricted T cell hybridoma specific for the antigenic peptide and the MHC class II allele restricting its presentation. Following incubation of this primary culture, an aliquot of its supernatant is transferred into a second culture well for incubation with an interleukin-dependent lymphoblastoid cell line. The degree of stimulation of that second, indicator cell by the interleukins which had been released from the activated T cell hybridoma in the primary culture is measured by quantitating tritiated thymidine deoxyribose {[^3H]TdR} uptake into the DNA of the HT-2 indicator cells of that second culture.
(§2) In the “simultaneous assay” the four components of the assay are cultured together for a 24 h period. The components of this primary culture, added at the same time or simultaneously, are: (a) the antigenic peptide, (b) mitomycin C-treated, MHC class II-positive antigen presenting cells (APC) with the MHC class II allele required for binding of the specific antigenic peptide and its presentation to the antigenic peptide-specific T cell hybridoma, (c) an AE101 series effector peptide, and (d) MHC class II allele-restricted T cell hybridoma specific for the antigenic peptide and the MHC class II allele restricting its presentation. At the end of the incubation of this primary culture, an aliquot of its supernatant is transferred into a second culture well for incubation with an interleukin-dependent lymphoblastoid cell line. The degree of stimulation of that second, indicator cell by the interleukins which had been released from the activated T cell hybridoma in the primary culture is measured by quantitating tritiated thymidine deoxyribose {[^3H]TdR} uptake into the DNA of the HT-2 indicator cells of that second culture.
(§3) For these various assays, the following antigenic peptides were used: HEL11-25, hen egg lysozyme 11-25, AMKRHGLDNYRGYSL(A^d) (SEQ ID NO:5); HEL46-61, hen egg lysozyme 46-61, NTDGSTDYGILQINSR(Ak) (SEQ ID NO:6); HEL106-116, hen egg lysozyme 106-116, NAWVAWRNRCK (E^d) (SEQ ID NO:7); PGCC81-104, pigeon cytochrome c 81-104, […] (Ek) (SEQ ID NO:8), and THMCC82-103, tobacco hornworm moth cytochrome c 82-103, […] (Ek) (SEQ ID NO:9). AE101 series peptides were obtained from commercial sources. In general, the purity and composition of each peptide was confirmed by HPLC separation and mass spectrometry. The native protein antigens were HEL, hen egg lysozyme, and PGCC, pigeon cytochrome C. They were obtained from commercial sources.
(§4) For the experiments of these Examples, several T cell hybridomas, which are specific for certain antigenic peptides, were used. The TPc9.1 T hybridoma is specific for pigeon cytochrome C 81-104 peptide presented on the murine class II MHC allele E^k. The TPc9.1 hybridoma responds heteroclitically to tobacco hornworm moth cytochrome c 82-103 on E^k. The 3A9 T hybridoma is specific for hen egg lysozyme 46-61 on A^k. The 9.30.B2 hybridoma is specific for hen egg lysozyme 11-25 on A^d, and the G28.C9 hybridoma is specific for hen egg lysozyme 106-116 on E^d. […]

[2] = test system: murine E^k MHC class II allele; assay: simultaneous assay, E^k allele (CH27 APC, TPc9.1 T hybridoma, THMCC82-103 or PGCC81-104); format: cell-based; conditions: for Times Baseline Response, Ek: Table 3, values reduced relative to E^d by a factor of 10
Procedure: as §1, §2, §3, §4

HLA-DR1 molecules = assay: release of biotin-labeled hMBP(90-102) from HLA-DR1 without unlabeled antigenic peptide (assay I); format: binding, human; conditions: Table 36; AE101 series compound 64 μM; fraction of o.d. of positive control (PBS only = 1.0; negative control = 0.0)
[3] = Table 1, AE peptide 16 μM (second value), 0.4 μM HEL106-116, supernatant 1:4
[4] = Table 1, AE peptide 64 μM (first value), 0.4 μM HEL106-116, supernatant 1:4
[5] = Table 1, AE peptide 16 μM (second value), 0.075 μM THMCC82-103, supernatant 1:2
[6] = Table 1, AE peptide 64 μM (first value), 0.075 μM THMCC82-103, supernatant 1:2
[7] = AE peptide 64 μM, supernatant 1:4
[8] = Table 12, AE peptide 1 μM (fourth value), supernatant 1:2
[9] = Table 12, AE peptide 4 μM (third value), supernatant 1:2
[10] = Table 12, AE peptide 16 μM (second value), supernatant 1:2
[11] = Table 12, AE peptide 64 μM (first value), supernatant 1:2
[12] = Table 12, AE peptide 1 μM (fourth value), supernatant 1:4
[13] = Table 12, AE peptide 4 μM (third value), supernatant 1:4
[14] = Table 12, AE peptide 16 μM (second value), supernatant 1:4
[15] = Table 12, AE peptide 64 μM (first value), supernatant 1:4

Substance: Ac-YRMKLPKS-NH2 [AE112]
Times Baseline Response, E^d [1, 3]: 26.2
Times Baseline Response, E^d [1, 4]: 42.8
Times Baseline Response, E^k [2, 5]: 3.2
Times Baseline Response, E^k [2, 6]: 15.3

Substance: Ac-YRMKLPKSA-NH2 [AE111]
Times Baseline Response, E^d [1, 3]: 18.8
Times Baseline Response, E^d [1, 4]: 39.2
Times Baseline Response, E^k [2, 5]: 2.0
Times Baseline Response, E^k [2, 6]: 7.2

Substance: Ac-YRMKLPKSAA-NH2 [AE128]
Times Baseline Response, E^d ([1]; Table 10, AE peptide 16 μM (second value), supernatant 1:2): 29.5
Times Baseline Response, E^d ([1]; Table 10, AE peptide 64 μM (first value), supernatant 1:2): 33.0
Times Baseline Response, E^k ([2]; Table 10, AE peptide 64 μM, supernatant 1:2 (first value)): 51.9
Times Baseline Response, E^k ([2]; Table 10, AE peptide 64 μM, supernatant 1:4 (second value)): 58.6

Substance: Ac-[Cit]RMKLPK-NH2 [AE181]
Times Baseline Response, Ed ([1]; supernatant 1:4): 9.0
Times Baseline Response, Ek [2, 7]: 11.5

Substance: Ac-[Orn]RMKLPK-NH2 [AE180]
Times Baseline Response, Ed ([1]; supernatant 1:4): 12.6
Times Baseline Response, Ek [2, 7]: 10.8

activity in simultaneous assay on E^d and E^k, in words [1]: inactive
Substance: Ac-kplkmrl-NH2 [AE171]
Times Baseline Response, E^d [1, 8]: 1.4
Times Baseline Response, E^d [1, 9]: 1.4
Times Baseline Response, E^d [1, 10]: 1.5
Times Baseline Response, E^d [1, 11]: 1.3
Times Baseline Response, E^k [2, 12]: 1.9
Times Baseline Response, E^k [2, 13]: 1.4
Times Baseline Response, E^k [2, 14]: 2.0
Times Baseline Response, E^k [2, 15]: 3.6

activity in simultaneous assay on E^d and E^k, in words [1]: inactive
Substance: Ac-lrmklpk-NH2 [AE170]
Times Baseline Response, E^d [1, 8]: 1.3
Times Baseline Response, E^d [1, 9]: 1.3
Times Baseline Response, E^d [1, 10]: 1.2
Times Baseline Response, E^d [1, 11]: 1.1
Times Baseline Response, E^k [2, 12]: 1.7
Times Baseline Response, E^k [2, 13]: 2.1
Times Baseline Response, E^k [2, 14]: 2.4
Times Baseline Response, E^k [2, 15]: 2.8

Substance: KLPKSAKPVSQMR [AE103]
Times Baseline Response, E^d [1, 3]: 1.3
Times Baseline Response, E^d [1, 4]: 3.4
Relative Release (HLA-DR1 molecules): 0.01
Times Baseline Response, E^k [2, 5]: 0.7, 0.7
Times Baseline Response, E^k [2, 6]: 0.7, 0.7

Substance: PKSAKPVSQMR [AE104]
Times Baseline Response, E^d [1, 3]: 0.9
Times Baseline Response, E^d [1, 4]: 2.6
Relative Release (HLA-DR1 molecules): 0.02
Times Baseline Response, E^k [2, 5]: 1.1
Times Baseline Response, E^k [2, 6]: 0.8
